Here are results for eight molecules from patent publication US11446394B2, “Lipid nanoparticle formulations comprising lipidated cationic peptide compounds for nucleic acid delivery” (NUTCRACKER THERAPEUTICS, INC., priority 2018, dated 2022).

A short description of data set [1]: mRNA encapsulation by Qubit RNA HS dye fluorescence before and after Triton X-100 lysis. It is filed as physicochemical. To be noted: percentage of mRNA encapsulation; Fluc mRNA/peptoid formulation, 5:1 mass ratio peptoid:cargo. The protocol:
(§1) To prepare nanoparticle formulations, the tertiary amino lipidated and/or PEGylated cationic peptide compound is mixed by pipetting with nucleic acid at a mass ratio between approximately 1:1 (peptide compound:cargo) and 20:1. Prior to formulation, tertiary amino lipidated and/or PEGylated cationic peptide compounds and cargo (such as nucleic acid) are diluted in ethanol and acidic buffer (PBS adjusted to pH 5.5 with 0.1 M HCl) respectively to a volume ratio of 1:3 and to target a final cargo concentration of approximately 0.05 mg/mL to 0.2 mg/mL. The exemplary amino lipidated cationic peptoids 1-36 described in Example 2 were combined with firefly luciferase (Fluc) mRNA to form nanoparticle compositions to be evaluated for therapeutic and/or prophylactic purposes in vitro or in vivo. The formulations were prepared according to the protocol of Example 3 and mixed by simple pipetting. The mRNA/peptoid formulation at a 5:1 mass ratio of peptoid:cargo were evaluated by dynamic light scattering (DLS) in order to determine the volume average particle size/diameter (nm) of the mRNA/peptoid complex and the size polydispersity index (PDI) within the formulation. The percentage of mRNA encapsulation for each formulation of the exemplary compounds were determined by fluorescence of the Qubit RNA HS (Invitrogen) dye before and after lysis of particles by Triton X-100.

Data set [2] is described as follows: Dynamic light scattering of Fluc mRNA/peptoid formulations (particle size, PDI). The following applies: Fluc mRNA/peptoid formulation, 5:1 mass ratio peptoid:cargo; for Size PDI: size polydispersity index by DLS; for Size (nm): volume average particle size/diameter by DLS. It is filed as physicochemical. The protocol: as §1
For data set [3], the system named is HeLa cells. Nature of the data set: In vitro firefly luciferase (Fluc) expression after treatment with Fluc mRNA/amino lipidated peptoid formulations. To be noted: peptoid:Fluc mRNA 5:1 w/w, 100 ng/well; for Luciferase Expression (RLU) 6 h: 6 hours of treatment; for Luciferase Expression (RLU) 24 h: 24 hours of treatment. It is filed as cell-based. The protocol: The efficacy of mRNA/amino lipidated peptoid formulations was evaluated in vitro based on their ability to deliver the firefly luciferase (Fluc) reporter gene to cultured cells. The amino lipidated cationic peptoids 1-36 of Example 2 were individually combined with Fluc mRNA at a 5:1 w/w ratio, and the resulting particles were added to cultured HeLa cells at a dose of 100 ng/well (in 100 μL total volume). The resulting luciferase expression (RLU) was measured by a luminescence plate reader after 6 hours and 24 hours of treatment.

On to `CCCCCCCCCCN(CC(N)=O)C(=O)CN(CCCCCCCCCC)C(=O)CN(CCCCCCCCCC)C(=O)CN(CCCCCCCCCC)C(=O)CN(CCc1ccccc1)C(=O)CN(CCc1ccccc1)C(=O)CN(CCCN)C(=O)CN(CCc1ccccc1)C(=O)CN(CCc1ccccc1)C(=O)CN(CCCN)C(=O)CN(CCc1ccccc1)C(=O)CN(CCc1ccccc1)C(=O)CN(CCCN)C(=O)CN(CCc1ccccc1)C(=O)CN(CCc1ccccc1)C(=O)CNCCCN` [Compound 29], for which the “% Encapsulation” value in data set [1] came to 24.8%. Besides, in data set [2], the “Size PDI” value amounted to 0.237 and the “Size (nm)” value is reported as 343.4 nm. In data set [3], the “Luciferase Expression (RLU) 6 h” value worked out at 1.64E+03 RLU and the “Luciferase Expression (RLU) 24 h” value is given as 6.72E+03 RLU.

On to `CCCCCCCCCCN(CC(N)=O)C(=O)CN(CCCCCCCCCC)C(=O)CN(CCCCCCCCCC)C(=O)CN(CCCCCCCCCC)C(=O)CN(CCc1ccccc1)C(=O)CN(CCc1ccccc1)C(=O)CN(CC1CCCN1)C(=O)CN(CCc1ccccc1)C(=O)CN(CCc1ccccc1)C(=O)CN(CC1CCCN1)C(=O)CN(CCc1ccccc1)C(=O)CN(CCc1ccccc1)C(=O)CNCC1CCCN1` (stereo not shown) [Compound 34], for which the “% Encapsulation” value in data set [1] is given as 58.0%. Also, in data set [2], the “Size PDI” value was 0.295 and the “Size (nm)” value is 348.4 nm. In data set [3], the “Luciferase Expression (RLU) 6 h” value was found to be 1.95E+03 RLU and the “Luciferase Expression (RLU) 24 h” value worked out at 2.71E+03 RLU.

For the molecule `CCCCCCCCCCN(CC(=O)N(CC(=O)N(CCCCCCCCCC)CC(=O)N(CC(N)=O)CC(CC)CCCC)CC(CC)CCCC)C(=O)CN(CCc1ccccc1)C(=O)CN(CCc1ccccc1)C(=O)CN(CCN)C(=O)CN(CCc1ccccc1)C(=O)CN(CCc1ccccc1)C(=O)CN(CCN)C(=O)CN(CCc1ccccc1)C(=O)CN(CCc1ccccc1)C(=O)CNCCN` (stereo not shown) [Compound 24], the “% Encapsulation” value in data set [1] came out at 87.0%. Moreover, in data set [2], the “Size PDI” value amounted to 0.135 and the “Size (nm)” value turned out to be 161 nm. Further, in data set [3], the “Luciferase Expression (RLU) 6 h” value is recorded as 1.79E+04 RLU and the “Luciferase Expression (RLU) 24 h” value was found to be 3.43E+04 RLU.

With `CCCCCCCCCCN(CC(N)=O)C(=O)CN(CCCCCCCCCC)C(=O)CN(CCCCCCCCCC)C(=O)CN(CCCCCCCCCC)C(=O)CN(CCCCCCCCCC)C(=O)CN(CCc1ccccc1)C(=O)CN(CCc1ccccc1)C(=O)CN(CCN)C(=O)CN(CCc1ccccc1)C(=O)CN(CCc1ccccc1)C(=O)CN(CCN)C(=O)CN(CCc1ccccc1)C(=O)CN(CCc1ccccc1)C(=O)CNCCN` [Compound 19], in data set [1], the “% Encapsulation” value amounted to 70.9%. Also, in data set [2], the “Size PDI” value worked out at 0.158 and the “Size (nm)” value amounted to 276 nm. In data set [3], the “Luciferase Expression (RLU) 6 h” value was 8.20E+03 RLU and the “Luciferase Expression (RLU) 24 h” value is 1.09E+04 RLU.

In the case of `CCCCCCCCCCN(CC(N)=O)C(=O)CN(CCCCCCCCCC)C(=O)CN(CCCCCCCCCC)C(=O)CN(CCCCCCCCCC)C(=O)CN(CCc1ccccc1)C(=O)CN(CCc1ccccc1)C(=O)CN(CC1CCCN1)C(=O)CN(CCc1ccccc1)C(=O)CN(CCc1ccccc1)C(=O)CN(CC1CCCN1)C(=O)CN(CCc1ccccc1)C(=O)CN(CCc1ccccc1)C(=O)CN(CC1CCCN1)C(=O)CN(CCc1ccccc1)C(=O)CN(CCc1ccccc1)C(=O)CNCC1CCCN1` (stereo not shown) [Compound 35], in data set [1], the “% Encapsulation” value is listed as 38.0%. In data set [2], the “Size PDI” value worked out at 0.486 and the “Size (nm)” value is given as 359.8 nm. In data set [3], the “Luciferase Expression (RLU) 6 h” value is listed as 1.22E+03 RLU and the “Luciferase Expression (RLU) 24 h” value is 1.60E+03 RLU.

`CCCCCCCCCCN(CC(N)=O)C(=O)CN(CCCCCCCCCC)C(=O)CN(CCc1ccccc1)C(=O)CN(CCc1ccccc1)C(=O)CN(CCN)C(=O)CN(CCc1ccccc1)C(=O)CN(CCc1ccccc1)C(=O)CN(CCN)C(=O)CN(CCc1ccccc1)C(=O)CN(CCc1ccccc1)C(=O)CN(CCN)C(=O)CN(CCc1ccccc1)C(=O)CN(CCc1ccccc1)C(=O)CN(CCN)C(=O)CN(CCc1ccccc1)C(=O)CN(CCc1ccccc1)C(=O)CNCCN` [Compound 12]: the “% Encapsulation” value in data set [1] worked out at 86.5%. For the same molecule, in data set [2], the “Size PDI” value came out at 0.211 and the “Size (nm)” value is recorded as 224.4 nm. For the same molecule, in data set [3], the “Luciferase Expression (RLU) 6 h” value turned out to be 4.04E+02 RLU and the “Luciferase Expression (RLU) 24 h” value is 5.71E+02 RLU.

On to `CCCCCCCCCCN(CC(N)=O)C(=O)CN(CCCCCCCCCC)C(=O)CN(CCCCCCCCCC)C(=O)CN(CCCCCCCCCC)C(=O)CN(CCc1ccccc1)C(=O)CN(CCc1ccccc1)C(=O)CN(CCN)C(=O)CN(CCc1ccccc1)C(=O)CN(CCc1ccccc1)C(=O)CN(CCN)C(=O)CN(CCc1ccccc1)C(=O)CN(CCc1ccccc1)C(=O)CNCCN` [Compound 8], for which the “% Encapsulation” value in data set [1] was found to be 82.5%. Also, in data set [2], the “Size PDI” value is reported as 0.077 and the “Size (nm)” value is 234 nm. Moreover, in data set [3], the “Luciferase Expression (RLU) 6 h” value is recorded as 1.10E+04 RLU and the “Luciferase Expression (RLU) 24 h” value was determined as 1.33E+04 RLU.

Turning to `CCCCCCCCCCN(CC(N)=O)C(=O)CN(CCCCCCCCCC)C(=O)CN(CCCCCCCCCC)C(=O)CN(CCCCCCCCCC)C(=O)CN(CCCCCCCCCC)C(=O)CN(CCc1ccccc1)C(=O)CN(CCc1ccccc1)C(=O)CN(CCN)C(=O)CN(CCc1ccccc1)C(=O)CN(CCc1ccccc1)C(=O)CN(CCN)C(=O)CN(CCc1ccccc1)C(=O)CN(CCc1ccccc1)C(=O)CN(CCN)C(=O)CN(CCc1ccccc1)C(=O)CN(CCc1ccccc1)C(=O)CNCCN` [Compound 21], in data set [1], the “% Encapsulation” value is 65.4%. In data set [2], the “Size PDI” value was 0.174 and the “Size (nm)” value came to 386.5 nm. In addition, in data set [3], the “Luciferase Expression (RLU) 6 h” value is 3.45E+03 RLU and the “Luciferase Expression (RLU) 24 h” value was 1.24E+04 RLU.
